Data from US11884747B2, “Compstatin analogs with increased solubility and improved pharmacokinetic properties” (The Trustees of the University of Pennsylvania, priority 2018, dated 2024).
Several values for one entry are separate records, joined by “and”; a condition that tells them apart may be missing. Equal values may be shown once. Entries after “also recorded” stand apart in the source; their conditions may differ. Read-outs that look alike come from different tables or passages of the source. Marks after values point to notes of the source that are not given here.

Legend:
physchem = settings: pH 7.4, Conc. (mg/ml), solubility in PBS
human C3b = target: T1, human C3b (Homo sapiens, UniProt P01024); experiment: SPR binding affinity and kinetic profile with immobilized C3b; settings: 25 °C
T1 construct: purchased Complement Technology, Inc., Tyler, TX

[1] = Pharmacokinetics in NHP plasma after single s.c. injection, with plasma C3 levels
[2] = Residence time in the vitreous after single intravitreal injection (WES and SPR competition assay); type: in vivo, cynomolgus monkeys
Procedure: To determine the residence time of mPEG(3 k)-Cp40, mPEG(1 k)-Cp40, Cp40-KK, and Cp40-KKK in the vitreous of cynomolgus macaques, these Cp40-based analogs were administered intravitreally (i.v.t.) to the animals after induction of light ketamine anesthesia (10-15 mg/kg, by intramuscular injection (i.m.)) and dilation of the pupils with tropicamide/phenylephrine ophthalmic solution (see Table 6 for study design).
For i.v.t. injection, the cynomolgus monkeys were anesthetized with a combination of ketamine (15-25 mg/kg, i.m.) and xylazine (2 mg/kg, i.m.) and the eye was cleaned with povidone-iodine solution. After application of oxybuprocaine hydrochloride solution (Benoxil® ophthalmic solution 0.4%) to the cornea as a local anesthetic, the Cp40-based analogs were administered to the animals by i.v.t. injection into either the right (G1, G3) or left (G2, G4) eye of each animal. Immediately following each injection, a single topical dose of 0.5% levofloxacin was administered. After i.v.t. injection of mPEG(3 k)-Cp40, mPEG(1 k)-Cp40, Cp40-KK, and Cp40-KKK, vitreous fluid samples (about 50 μL each) were withdrawn from Cp40-based analog-treated eyes on days 14, 28, 42, (G1, G2, G3, G4), 56, 73, 90 (G1, G2) (this was done either three times or six times). Samples were collected on ice and stored in a deep freezer (˜79.3 to −68.5° C.) until further analysis. […] Presence and concentration of the Cp40-based analogs was determined using either the simple western technology (WES, ProteinSimple, San Jose, CA), or surface plasmon resonance (SPR)-based real-time measurement of binding kinetics on a Cp40-KKK immobilized chip (see detailed methods below). Similar results with regard to the intravitreal residence time and concentration levels of the test compounds were obtained regardless of the quantification method selected.
To quantify the levels of all test compounds in vitreous samples collected at different time points following i.v.t. injection (see FIG. 15), WES analysis was performed on a WES instrument (ProteinSimple, San Jose, CA) using a 2 to 40 kDa Separation Module and Anti-Rabbit Detection Module according to the manufacturers' instructions. […] The resulting electropherograms were evaluated using the Compass software (ProteinSimple, San Jose, CA). The following criteria were used to discriminate low peptide signals from background: The peak signal-to-noise (S/N) ratio given by the software must be ≥10, and the peak height/baseline ratio (calculated manually from the peak height and baseline values given by the software) must be equal to or greater than 3. […] Shown in FIG. 15 is a representative standard curve generated using the WES system and bands obtained upon running pre-determined amounts of purified peptide spiked into rabbit vitreous samples. […]

purified human C3b = target: T2, purified human C3b (Homo sapiens, UniProt P01024); experiment: SPR C3b-binding activity of compound present in vitreous samples
T2 construct: purchased Complement Technology, Inc., Tyler, TX
Procedure: To confirm that the compound present in the NHP vitreous maintains C3b-binding activity, which is a prerequisite for eliciting its inhibitory action across all complement pathways, surface plasmon resonance (SPR) binding experiments were conducted. Briefly, for a positive binding control, serial dilutions of Cp40-KKK (16, 8, 4, and 2 nM) were added to rabbit vitreous samples and flowed onto a Biacore CM5 chip immobilized with purified human C3b (Complement Technology Inc, Tyler, TX) (see FIG. 19A). Next, vitreous samples were collected from a Cp40-KKK injected eye at day 14 post-injection and subjected to heat-inactivation at 95° C. for 5 min. Both heat-inactivated and non-heat-inactivated samples were flowed onto a CM5 chip immobilized with purified human C3b as indicated above (FIG. 19B).

[3] = pH adjusted upon addition of PBS
[4] = NHP vitreous, day 14 post-injection

T2 sequence (P01024 23-667 limits assumed): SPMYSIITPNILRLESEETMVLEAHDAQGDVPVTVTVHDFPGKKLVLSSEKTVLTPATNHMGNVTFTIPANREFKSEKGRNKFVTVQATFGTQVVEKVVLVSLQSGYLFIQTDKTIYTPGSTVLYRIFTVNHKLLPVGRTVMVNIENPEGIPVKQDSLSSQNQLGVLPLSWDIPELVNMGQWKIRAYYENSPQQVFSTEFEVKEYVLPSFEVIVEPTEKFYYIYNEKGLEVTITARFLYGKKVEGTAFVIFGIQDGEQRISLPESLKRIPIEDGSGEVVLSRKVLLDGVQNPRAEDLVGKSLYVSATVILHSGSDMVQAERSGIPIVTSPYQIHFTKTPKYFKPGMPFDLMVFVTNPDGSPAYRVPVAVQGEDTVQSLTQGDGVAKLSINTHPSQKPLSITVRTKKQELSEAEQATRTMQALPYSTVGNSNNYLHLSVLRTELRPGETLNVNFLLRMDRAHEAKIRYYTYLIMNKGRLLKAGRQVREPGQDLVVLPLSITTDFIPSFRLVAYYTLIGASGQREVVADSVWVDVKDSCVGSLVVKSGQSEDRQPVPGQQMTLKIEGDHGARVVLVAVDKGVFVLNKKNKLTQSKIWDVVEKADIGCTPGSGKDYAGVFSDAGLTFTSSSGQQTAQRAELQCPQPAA
T2 sequence (P01024 749-1663 partner limits assumed): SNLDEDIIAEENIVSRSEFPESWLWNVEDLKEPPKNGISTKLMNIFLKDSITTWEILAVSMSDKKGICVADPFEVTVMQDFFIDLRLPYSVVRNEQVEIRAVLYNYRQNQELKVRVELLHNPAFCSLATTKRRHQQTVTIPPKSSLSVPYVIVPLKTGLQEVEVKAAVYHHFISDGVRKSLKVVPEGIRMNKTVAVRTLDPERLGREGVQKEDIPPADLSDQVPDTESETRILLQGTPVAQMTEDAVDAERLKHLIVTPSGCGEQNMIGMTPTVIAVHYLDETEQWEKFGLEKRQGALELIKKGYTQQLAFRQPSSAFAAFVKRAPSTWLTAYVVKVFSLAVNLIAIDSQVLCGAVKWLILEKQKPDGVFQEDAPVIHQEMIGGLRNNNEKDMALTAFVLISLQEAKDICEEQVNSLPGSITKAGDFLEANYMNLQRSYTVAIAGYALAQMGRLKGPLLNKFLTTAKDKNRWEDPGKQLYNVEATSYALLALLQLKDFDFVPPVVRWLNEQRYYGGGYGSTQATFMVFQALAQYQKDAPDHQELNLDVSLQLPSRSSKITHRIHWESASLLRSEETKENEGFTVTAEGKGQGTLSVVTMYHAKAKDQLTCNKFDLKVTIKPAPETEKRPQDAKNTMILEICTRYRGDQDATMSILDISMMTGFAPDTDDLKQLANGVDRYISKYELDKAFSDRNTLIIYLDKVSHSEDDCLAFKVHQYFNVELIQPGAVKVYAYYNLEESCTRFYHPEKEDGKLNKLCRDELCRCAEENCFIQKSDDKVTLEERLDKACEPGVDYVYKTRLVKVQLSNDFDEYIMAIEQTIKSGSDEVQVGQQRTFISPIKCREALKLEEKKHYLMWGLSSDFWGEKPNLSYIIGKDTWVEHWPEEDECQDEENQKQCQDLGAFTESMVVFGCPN
T1 sequence (P01024 23-667 limits assumed): as the sequence (P01024 23-667 limits assumed) above
T1 sequence (P01024 749-1663 partner limits assumed): as the sequence (P01024 749-1663 partner limits assumed) above

solubility (physchem): > 100 mg/mL
kd, dissociation constant (human C3b; 1:1 Langmuir model): 1.24 ± 0.42 10^−3s^−1
Kd (human C3b; KD=kd/ka, read-out: KD, equilibrium dissociation constant): 0.21 ± 0.09 nM
Cp40-K fragment detectable in plasma ([1]; 4 h after s.c. injection, one monkey): ≤ 5 µM
decreased CL/F compared to Cp40 ([1]; single s.c. 2 mg/kg): ~3 fold
higher cmax than Cp40 ([1]; single s.c. 2 mg/kg): ~2 fold
increased AUC0-t compared to Cp40 ([1]; single s.c. 2 mg/kg): ~2.6 fold
plasma concentration of uncleaved Cp40-KKK at any time point ([1]; single s.c. 2 mg/kg, UPLC-ESI-MS, both animals): ≤ 2000 nM
vitreous residence at C3 saturating levels ([2]; single i.v.t. 0.5 mg): ≥ 90 days
pH (after additional lyophilization from H2O): 9.5
pH of the peptide solution in PBS (at the stated concentration, indicator paper): 8.5
Conc. (mg/ml) at which pH in the 7 range was observed [3]: 7 mg/ml and 7.0 mg/ml
pH [3]: 7.5*
C3b-binding signal, heat-inactivated vitreous sample (purified human C3b; [4]): 10 relative units
C3b-binding signal, non-heat inactivated vitreous sample (purified human C3b; [4]): 2 relative units
Compound: CC[C@H](C)[C@H](NC(=O)[C@H](N)Cc1ccc(O)cc1)C(=O)N[C@H]1CSSC[C@@H](C(=O)N(C)[C@H](C(=O)N[C@@H](CCCCN)C(=O)N[C@@H](CCCCN)C(=O)N[C@@H](CCCCN)C(N)=O)[C@@H](C)CC)NC(=O)[C@H](CCCNC(=N)N)NC(=O)[C@H](Cc2c[nH]cn2)NC(=O)[C@H](C)NC(=O)CN(C)C(=O)[C@H](Cc2c[nH]c3ccccc23)NC(=O)[C@H](CC(=O)O)NC(=O)[C@H](CCC(N)=O)NC(=O)[C@H](Cc2cn(C)c3ccccc23)NC(=O)[C@H](C(C)C)NC1=O [Cp40-KKK, DTyr-Ile-[Cys-Val-Trp(Me)-Gln-Asp-Trp-Sar-Ala-His-Arg-Cys]-mlle-Lys-Lys-Lys—NH2]
in vivo Lys cleavage in plasma ([1]; after s.c. injection, UPLC-ESI-MS): one or two Lys residues are cleaved from Cp40-KKK in NHP plasma, but not the third; also recorded: no Cp40 was detected in any of the plasma samples; also recorded: almost completely metabolized into Cp40-KK and small amounts of Cp40-K
CL/F, apparent clearance ([1]; single s.c. 2 mg/kg, SUM for Lys analogs, 2 mg/kg): 2483 ((mg/kg)/(μM · h) and 2921 ((mg/kg)/(μM · h)
detection in vitreous over time ([2]; single i.v.t. 500 μg, days 14-90): detected even at day 90 post-treatment; also recorded: remained stable during the 73-day observation period
C3b binding in vitreous (purified human C3b; spiked rabbit vitreous or injected NHP eye): binds to C3b in a dose-dependent manner; also recorded: maintains its C3b-binding activity
